Assay: Particle size result of micronised salbutamol sulphate
Format: physicochemical

Particle size result: MMD (Mass Mean Diameter): =2.53 μm. | Particle size result: fraction of particles >1 μm: 90.17% | Particle size result: size below which 90% of particles lie: <5.48 μm
Substance: Salbutamol Sulphate
